Columns and labels:
[1] = Body weight of hyperglycemic rats; type: in vivo, SD rats (spontaneously hyperglycemic strain); conditions: 0.28 mg/kg once daily 14 days; week 8
Excerpt: Hyperglycemic Rat Diabetic Retinopathy Model—A spontaneously hyperglycemic strain of SD rats, which developed clinical signs of diabetic retinopathy within 4 weeks of birth were identified and isolated within the Vernon Jansen Animal Research Unit, Faculty of Medical and Health Sciences at the University of Auckland. The identification of these rats presenting with hyperglycemia and microaneurysms provided an opportunity to treat a complex, chronic disease model and assess the treatment effect based upon objective, measurable endpoints, despite lacking precise information on the etiology of the disease. Inbreeding was carried out over three generations and eyes were screened for abnormalities between 4-8 weeks of age. […]
Ten rats per group were the selected (10 normal SD and 10 hyperglycemic) grown to 5 weeks of age and assessed using OCT and ERG. […] All animals were assessed again using ERG and OCT at 8 weeks of age before euthanizing animals and removing the eyes for immunohistochemical analysis. […] In summary, normal SD and hyperglycemic rats were analyzed with OCT and ERG at 5 weeks of age; the hyperglycemic rats were then split into two groups and fed the vehicle or tonabersat for 14 days during weeks 6 and 7 of age. At week 8, animals were again assessed with ERG and OCT and tissues collected for immunohistochemical analysis. […]

GFAP, Connexin43, Iba-1 = assay: Immunohistochemical labelling of GFAP, Iba-1 and Connexin43 in hyperglycemic rat retina; type: in vivo, SD rats (spontaneously hyperglycemic strain); conditions: dosed daily for 14 days, 8 weeks of age
Description: Ten rats per group were the selected (10 normal SD and 10 hyperglycemic) grown to 5 weeks of age and assessed using OCT and ERG. The hyperglycemic rat group was then split into two subgroups of five, with one subgroup fed tonabersat once daily for 14 days from weeks 5 to 7 at a low dose level of 0.28 mg/kg in 0.5 g peanut butter, with the other subgroup fed 0.5 g peanut butter only. All animals were assessed again using ERG and OCT at 8 weeks of age before euthanizing animals and removing the eyes for immunohistochemical analysis. Data groups were randomized prior to the statistical comparison. In summary, normal SD and hyperglycemic rats were analyzed with OCT and ERG at 5 weeks of age; the hyperglycemic rats were then split into two groups and fed the vehicle or tonabersat for 14 days during weeks 6 and 7 of age. At week 8, animals were again assessed with ERG and OCT and tissues collected for immunohistochemical analysis. Four tonabersat-treated rats were, however, left until 3 months of age before final ERG and OCT and tissue collection.
Tissue Collection and Processing—At the end of the final OCT recording rats was deeply anesthetized using a combination of ketamine (75 mg/kg, Parnell Technologies, New Zealand) and domitor (0.5 mg/kg, Pfizer, New Zealand). Animals were perfused transcardially with saline for 2-3 min followed by 30 min perfusion with 4% paraformaldehyde in a 0.1 M phosphate buffer, pH 7.4 (PB). Eyes were dissected from the orbit and the eyecups further immersion fixed in 4% paraformaldehyde, 30 min before washing in PB. Tissues were then cryo-protected by taking them though 10% and 20% sucrose/PB solutions at room temperature for 30 min each, before soaking in 30% sucrose/PB at 4° C. overnight. The tissue was then embedded in optimum cutting temperature compound (Sakura Finetek, Torrance, USA) for cryosectioning (16 μm section thickness) in the vertical plane using a Leica CM3050 S cryostat (Leica, Germany). Sections were collected on Superfrost Plus slides (Labserv, New Zealand) for immunohistochemical labelling. For the DR animals we collected spleen, pancreas, liver, heart and kidneys from randomly selected vehicle-injected animals (see supplementary information).
Immunohistochemical Labelling of Tissue Sections—Frozen tissue sections were air-dried at room temperature for 10-15 min and washed with 0.1 M PB. Sections were encircled with a PAP pen (Invitrogen, New Zealand) to form incubation wells and blocked with 6% normal goat serum or donkey serum (Invitrogen, USA), 1% bovine serum albumin (BSA) and 0.5% Triton X-100 in 0.1 M PB for 1 hour at room temperature. […]

[2] = significantly less than untreated, p<0.001

In the case of CC(=O)c1ccc2c(c1)[C@H](NC(=O)c1ccc(F)c(Cl)c1)[C@H](O)C(C)(C)O2 [tonabersat, N-[(3S,4S)-6-acetyl-3-hydroxy-2,2-dimethyl-3,4-dihydrochromen-4-yl]-3-chloro-4-fluorobenzamide], the “body weight, treated vs untreated hyperglycemic rats” value [1] is reported as “no difference”, the “inflammation (labeling for GFAP, Iba-1, Connexin43)” value (GFAP, Connexin43, Iba-1) is reported as “reduced inflammation” and the “Connexin43 labelling, quantification” value (GFAP, Connexin43, Iba-1; [2]) is reported as “recovering to normal”. For the same compound, the “GFAP labelling, quantification” value (GFAP, Connexin43, Iba-1; [2]) was “recovering to normal” and the “Iba-1 labelling, quantification” value (GFAP, Connexin43, Iba-1; [2]) was “recovering to normal”.
